Laboratory results as given in ChEMBL document CHEMBL5465560, “Selectivity Literature for EUbOPEN Chemogenomic Library” (2024).

Tests used:
Misshapen-like kinase 1 = Misshapen-like kinase 1 (Homo sapiens, UniProt Q8N4C8); assay: Selectivity interaction (KinomeScan (DiscoverX)) EUB0000229b MINK1; settings: at 10 µM
[1] = target: Ribosomal protein S6 kinase alpha-1 (Homo sapiens, UniProt Q15418); assay: Selectivity interaction (KinomeScan (DiscoverX)) EUB0000092b RPS6KA1; settings: at 10 µM
[2] = target: Serine/threonine-protein kinase PAK 3 (Homo sapiens) (UniProt O75914); assay: Selectivity interaction (Upstate Kinase Profiler service (Millipore)) EUB0000056c PAK3; settings: at 1 µM
Sequence of Serine/threonine-protein kinase PAK 3 (Homo sapiens) (O75914 whole entry, looked up): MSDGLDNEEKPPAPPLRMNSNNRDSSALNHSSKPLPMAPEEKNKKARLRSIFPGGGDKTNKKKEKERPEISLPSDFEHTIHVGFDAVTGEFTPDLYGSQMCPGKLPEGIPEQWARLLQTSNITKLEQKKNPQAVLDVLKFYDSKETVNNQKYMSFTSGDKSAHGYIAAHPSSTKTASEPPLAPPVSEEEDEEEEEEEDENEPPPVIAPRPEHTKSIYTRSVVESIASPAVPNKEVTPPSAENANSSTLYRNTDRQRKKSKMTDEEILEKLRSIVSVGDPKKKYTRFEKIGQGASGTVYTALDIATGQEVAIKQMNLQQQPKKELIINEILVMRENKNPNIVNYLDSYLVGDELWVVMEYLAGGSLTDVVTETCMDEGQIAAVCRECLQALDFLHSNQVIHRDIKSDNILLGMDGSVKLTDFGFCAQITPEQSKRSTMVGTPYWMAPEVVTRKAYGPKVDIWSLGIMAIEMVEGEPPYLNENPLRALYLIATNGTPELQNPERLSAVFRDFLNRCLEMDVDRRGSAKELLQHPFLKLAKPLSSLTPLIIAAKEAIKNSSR

[3] = target: T1, Mitogen-activated protein kinase kinase kinase 7 (Homo sapiens) (UniProt O43318); assay: Selectivity interaction (KinomeScan (DiscoverX)) EUB0000666a MAP3K7; settings: at 10 µM
T1 sequence (whole entry): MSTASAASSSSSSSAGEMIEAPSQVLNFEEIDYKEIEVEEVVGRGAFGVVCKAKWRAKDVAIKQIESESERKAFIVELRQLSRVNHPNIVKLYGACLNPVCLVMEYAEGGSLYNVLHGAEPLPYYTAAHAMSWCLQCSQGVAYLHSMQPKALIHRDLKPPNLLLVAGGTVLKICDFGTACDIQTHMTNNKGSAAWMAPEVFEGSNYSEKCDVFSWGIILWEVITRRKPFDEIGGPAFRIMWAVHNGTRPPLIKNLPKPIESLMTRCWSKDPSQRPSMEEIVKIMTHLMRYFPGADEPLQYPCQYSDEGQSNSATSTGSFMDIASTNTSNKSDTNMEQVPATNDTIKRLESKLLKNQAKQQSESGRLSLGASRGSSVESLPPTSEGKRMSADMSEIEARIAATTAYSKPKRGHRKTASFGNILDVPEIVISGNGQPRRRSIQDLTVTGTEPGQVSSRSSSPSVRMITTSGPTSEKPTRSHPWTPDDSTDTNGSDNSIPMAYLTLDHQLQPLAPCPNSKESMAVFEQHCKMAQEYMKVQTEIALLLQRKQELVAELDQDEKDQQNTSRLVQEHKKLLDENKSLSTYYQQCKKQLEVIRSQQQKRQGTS

[4] = target: Phosphatidylinositol 4-phosphate 5-kinase type-1 alpha (Homo sapiens) (UniProt Q99755); assay: Selectivity interaction (KinomeScan (DiscoverX)) EUB0001868a PIP5K1A; settings: at 1 µM
Sequence of Phosphatidylinositol 4-phosphate 5-kinase type-1 alpha (Homo sapiens) (Q99755 whole entry): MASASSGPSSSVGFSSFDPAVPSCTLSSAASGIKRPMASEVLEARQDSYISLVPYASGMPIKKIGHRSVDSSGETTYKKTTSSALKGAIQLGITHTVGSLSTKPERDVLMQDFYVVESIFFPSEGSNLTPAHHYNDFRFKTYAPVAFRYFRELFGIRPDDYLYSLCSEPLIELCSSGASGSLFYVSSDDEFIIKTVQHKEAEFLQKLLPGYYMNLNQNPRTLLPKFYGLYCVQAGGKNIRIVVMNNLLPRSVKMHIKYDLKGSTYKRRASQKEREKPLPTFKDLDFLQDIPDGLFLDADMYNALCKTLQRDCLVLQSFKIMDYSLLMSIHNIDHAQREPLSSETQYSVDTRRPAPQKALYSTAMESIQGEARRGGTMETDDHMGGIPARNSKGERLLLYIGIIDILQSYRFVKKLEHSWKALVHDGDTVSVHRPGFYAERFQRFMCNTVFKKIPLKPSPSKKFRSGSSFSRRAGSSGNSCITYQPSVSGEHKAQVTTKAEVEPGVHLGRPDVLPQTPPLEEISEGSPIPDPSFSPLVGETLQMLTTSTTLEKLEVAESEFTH

[5] = target: Serine/threonine-protein kinase pim-1 (Homo sapiens, UniProt P11309); settings: at 10 µM
Sequence of Serine/threonine-protein kinase pim-1 (P11309 whole entry, looked up): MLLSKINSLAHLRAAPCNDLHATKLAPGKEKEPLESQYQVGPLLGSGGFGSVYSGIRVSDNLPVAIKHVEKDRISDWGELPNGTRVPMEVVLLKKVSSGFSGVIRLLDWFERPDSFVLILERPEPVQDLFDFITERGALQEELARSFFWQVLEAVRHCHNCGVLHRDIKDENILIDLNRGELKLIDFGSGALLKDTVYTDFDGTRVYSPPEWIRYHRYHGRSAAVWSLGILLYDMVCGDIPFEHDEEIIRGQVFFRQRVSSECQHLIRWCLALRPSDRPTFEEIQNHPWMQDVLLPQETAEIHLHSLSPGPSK

[6] = target: T2, Myosin light chain kinase family member 4 (Homo sapiens) (UniProt Q86YV6); assay: Selectivity interaction (LanthaScreen Eu Kinase Binding Assay) EUB0001632a MYLK4; settings: at 10 µM
T2 sequence (whole entry): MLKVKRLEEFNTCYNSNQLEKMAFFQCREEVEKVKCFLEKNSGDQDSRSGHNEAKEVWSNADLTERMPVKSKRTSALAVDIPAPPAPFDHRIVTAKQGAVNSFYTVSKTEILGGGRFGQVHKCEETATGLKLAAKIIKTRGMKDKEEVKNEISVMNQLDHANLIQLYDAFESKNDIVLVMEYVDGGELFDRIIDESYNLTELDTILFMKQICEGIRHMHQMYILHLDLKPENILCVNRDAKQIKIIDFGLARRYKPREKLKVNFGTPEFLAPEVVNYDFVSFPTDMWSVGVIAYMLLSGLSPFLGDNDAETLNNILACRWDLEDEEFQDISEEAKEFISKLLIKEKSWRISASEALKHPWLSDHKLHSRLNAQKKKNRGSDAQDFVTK

[7] = target: Nuclear body protein SP140-like protein (Homo sapiens) (UniProt Q9H930); assay: Selectivity interaction (Bromodomain panel (DSF asssay)) EUB0000270b SP140L
Sequence of Nuclear body protein SP140-like protein (Homo sapiens) (Q9H930 whole entry): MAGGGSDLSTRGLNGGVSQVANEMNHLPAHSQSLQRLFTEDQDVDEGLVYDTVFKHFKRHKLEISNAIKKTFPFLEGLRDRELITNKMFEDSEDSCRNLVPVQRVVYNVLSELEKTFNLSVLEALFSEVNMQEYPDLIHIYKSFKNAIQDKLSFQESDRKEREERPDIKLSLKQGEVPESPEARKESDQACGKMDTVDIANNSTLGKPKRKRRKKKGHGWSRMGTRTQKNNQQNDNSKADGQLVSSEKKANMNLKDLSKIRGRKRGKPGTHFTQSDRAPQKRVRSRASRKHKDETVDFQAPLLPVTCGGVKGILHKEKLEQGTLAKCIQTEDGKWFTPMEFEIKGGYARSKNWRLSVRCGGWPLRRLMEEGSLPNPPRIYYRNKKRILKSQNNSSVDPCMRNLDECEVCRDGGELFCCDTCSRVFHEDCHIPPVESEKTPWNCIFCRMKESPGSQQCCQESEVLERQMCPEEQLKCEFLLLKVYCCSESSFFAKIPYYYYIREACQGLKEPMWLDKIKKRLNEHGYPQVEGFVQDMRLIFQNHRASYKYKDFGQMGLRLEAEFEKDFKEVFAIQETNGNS

[8] = target: Fibroblast growth factor receptor 1 (Homo sapiens, UniProt P11362)
Sequence of Fibroblast growth factor receptor 1 (P11362 whole entry): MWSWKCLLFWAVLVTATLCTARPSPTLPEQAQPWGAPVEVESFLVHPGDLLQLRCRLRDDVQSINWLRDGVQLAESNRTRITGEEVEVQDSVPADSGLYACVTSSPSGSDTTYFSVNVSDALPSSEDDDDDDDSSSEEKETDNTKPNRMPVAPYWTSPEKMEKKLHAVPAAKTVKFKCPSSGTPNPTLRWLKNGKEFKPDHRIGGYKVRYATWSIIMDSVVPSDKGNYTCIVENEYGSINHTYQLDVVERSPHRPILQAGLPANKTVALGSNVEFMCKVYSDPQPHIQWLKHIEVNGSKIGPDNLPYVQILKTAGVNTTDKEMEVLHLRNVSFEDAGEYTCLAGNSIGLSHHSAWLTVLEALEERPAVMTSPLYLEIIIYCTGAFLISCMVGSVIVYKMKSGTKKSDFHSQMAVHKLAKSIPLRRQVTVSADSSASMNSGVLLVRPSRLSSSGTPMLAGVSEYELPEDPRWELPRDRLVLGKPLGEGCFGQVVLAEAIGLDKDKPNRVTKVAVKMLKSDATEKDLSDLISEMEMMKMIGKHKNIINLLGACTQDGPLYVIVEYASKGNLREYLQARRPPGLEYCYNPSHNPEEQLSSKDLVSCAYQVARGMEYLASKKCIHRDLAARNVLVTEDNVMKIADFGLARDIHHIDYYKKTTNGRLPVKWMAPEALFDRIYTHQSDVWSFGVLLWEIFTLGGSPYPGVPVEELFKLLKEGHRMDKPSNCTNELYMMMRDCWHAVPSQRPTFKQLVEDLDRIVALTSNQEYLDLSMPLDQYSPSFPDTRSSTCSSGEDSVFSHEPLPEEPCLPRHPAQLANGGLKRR

[9] = target: Dual specificity tyrosine-phosphorylation-regulated kinase 1B (Homo sapiens, UniProt Q9Y463); assay: Selectivity interaction (Kinase panel (Invitrogen)) EUB0000639a DYRK1B; settings: at 200 nM
[10] = target: T3, Cyclin-dependent kinase 11A (Homo sapiens) (UniProt Q9UQ88); assay: Selectivity interaction (KinomeScan (DiscoverX)) EUB0000595a CDK11A; settings: at 10 µM
T3 sequence (whole entry): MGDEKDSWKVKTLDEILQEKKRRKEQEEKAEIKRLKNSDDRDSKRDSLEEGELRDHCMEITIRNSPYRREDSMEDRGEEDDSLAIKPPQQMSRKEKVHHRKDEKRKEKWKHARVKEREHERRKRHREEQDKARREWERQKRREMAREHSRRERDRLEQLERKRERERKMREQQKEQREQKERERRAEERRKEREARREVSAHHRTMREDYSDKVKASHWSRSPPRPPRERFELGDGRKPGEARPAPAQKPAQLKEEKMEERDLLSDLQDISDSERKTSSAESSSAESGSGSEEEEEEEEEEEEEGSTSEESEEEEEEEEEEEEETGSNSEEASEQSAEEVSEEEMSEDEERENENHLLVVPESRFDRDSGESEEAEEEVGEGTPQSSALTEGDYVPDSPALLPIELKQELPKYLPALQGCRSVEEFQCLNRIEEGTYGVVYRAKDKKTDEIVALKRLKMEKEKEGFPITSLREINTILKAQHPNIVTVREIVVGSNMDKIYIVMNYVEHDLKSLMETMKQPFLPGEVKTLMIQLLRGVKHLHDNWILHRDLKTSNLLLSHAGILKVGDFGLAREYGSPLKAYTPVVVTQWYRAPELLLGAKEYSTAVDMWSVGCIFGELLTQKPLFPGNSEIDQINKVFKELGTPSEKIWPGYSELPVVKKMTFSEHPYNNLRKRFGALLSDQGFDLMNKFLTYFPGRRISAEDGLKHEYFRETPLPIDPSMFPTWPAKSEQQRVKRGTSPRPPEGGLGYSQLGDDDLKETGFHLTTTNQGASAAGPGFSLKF

Sequence of Ribosomal protein S6 kinase alpha-1 (Q15418 whole entry): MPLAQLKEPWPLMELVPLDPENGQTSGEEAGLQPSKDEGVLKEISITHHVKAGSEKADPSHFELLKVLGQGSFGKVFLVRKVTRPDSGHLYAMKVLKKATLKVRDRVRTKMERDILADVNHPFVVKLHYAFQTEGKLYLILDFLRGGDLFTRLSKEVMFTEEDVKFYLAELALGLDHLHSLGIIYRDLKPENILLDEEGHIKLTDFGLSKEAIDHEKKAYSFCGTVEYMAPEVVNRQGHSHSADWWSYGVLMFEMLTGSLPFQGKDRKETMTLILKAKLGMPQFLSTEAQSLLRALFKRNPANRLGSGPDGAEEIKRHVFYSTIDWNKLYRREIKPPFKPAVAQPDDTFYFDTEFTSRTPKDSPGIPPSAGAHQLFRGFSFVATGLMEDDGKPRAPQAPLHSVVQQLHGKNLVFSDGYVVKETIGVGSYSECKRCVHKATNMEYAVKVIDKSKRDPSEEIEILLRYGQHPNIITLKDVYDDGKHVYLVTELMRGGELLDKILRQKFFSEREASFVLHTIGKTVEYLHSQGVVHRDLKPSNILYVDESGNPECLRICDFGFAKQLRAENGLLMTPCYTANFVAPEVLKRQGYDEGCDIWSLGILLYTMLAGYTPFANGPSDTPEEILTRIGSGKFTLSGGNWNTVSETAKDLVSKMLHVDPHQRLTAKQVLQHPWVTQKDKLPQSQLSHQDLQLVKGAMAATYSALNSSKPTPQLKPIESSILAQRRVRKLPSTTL
Sequence of Misshapen-like kinase 1 (Q8N4C8 whole entry, looked up): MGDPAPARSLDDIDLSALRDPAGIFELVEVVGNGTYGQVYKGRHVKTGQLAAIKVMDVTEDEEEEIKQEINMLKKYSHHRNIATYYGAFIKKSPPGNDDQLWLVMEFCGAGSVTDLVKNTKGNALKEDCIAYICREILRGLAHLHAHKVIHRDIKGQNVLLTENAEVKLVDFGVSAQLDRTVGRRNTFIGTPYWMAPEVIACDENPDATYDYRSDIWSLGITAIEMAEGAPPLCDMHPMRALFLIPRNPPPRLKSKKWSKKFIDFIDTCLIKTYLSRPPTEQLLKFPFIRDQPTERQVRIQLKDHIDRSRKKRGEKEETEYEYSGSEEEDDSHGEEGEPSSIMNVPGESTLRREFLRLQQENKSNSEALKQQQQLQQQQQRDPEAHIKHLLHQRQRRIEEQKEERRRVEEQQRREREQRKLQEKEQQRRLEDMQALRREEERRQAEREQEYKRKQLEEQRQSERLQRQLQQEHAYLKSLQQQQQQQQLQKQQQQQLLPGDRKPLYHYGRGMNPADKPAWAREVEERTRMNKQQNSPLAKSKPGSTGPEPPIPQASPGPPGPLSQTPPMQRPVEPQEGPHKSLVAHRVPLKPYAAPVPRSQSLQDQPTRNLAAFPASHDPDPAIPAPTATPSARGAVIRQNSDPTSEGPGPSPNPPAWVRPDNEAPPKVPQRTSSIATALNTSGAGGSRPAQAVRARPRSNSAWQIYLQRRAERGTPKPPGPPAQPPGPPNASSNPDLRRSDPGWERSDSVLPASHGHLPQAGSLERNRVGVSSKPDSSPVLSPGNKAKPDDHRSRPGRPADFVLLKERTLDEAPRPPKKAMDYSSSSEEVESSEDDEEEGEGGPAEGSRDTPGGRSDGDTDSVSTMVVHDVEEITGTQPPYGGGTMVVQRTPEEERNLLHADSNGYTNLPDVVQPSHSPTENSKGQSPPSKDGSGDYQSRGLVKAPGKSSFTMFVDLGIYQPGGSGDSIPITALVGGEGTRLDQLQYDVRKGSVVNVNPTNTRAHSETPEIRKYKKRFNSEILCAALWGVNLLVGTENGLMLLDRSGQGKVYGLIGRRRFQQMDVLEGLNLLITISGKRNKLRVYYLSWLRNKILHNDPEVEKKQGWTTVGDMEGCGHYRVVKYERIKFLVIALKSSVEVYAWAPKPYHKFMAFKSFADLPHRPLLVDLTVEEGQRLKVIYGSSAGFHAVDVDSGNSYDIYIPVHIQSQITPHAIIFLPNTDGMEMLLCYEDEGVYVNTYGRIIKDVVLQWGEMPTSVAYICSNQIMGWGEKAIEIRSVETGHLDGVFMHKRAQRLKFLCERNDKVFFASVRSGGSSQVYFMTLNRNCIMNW

COc1cc(N(C)c2ccnc3ccc(C(F)(F)F)cc23)cc(OC)c1OC
% binding (Misshapen-like kinase 1): 68%

CCC(=O)N1CCN(c2ccc(-n3c(=O)ccc4cnc5ccc(-c6cnc7ccccc7c6)cc5c43)cc2C(F)(F)F)CC1
% of control [1]: 100%

Cc1ccc(-c2ccc3c(ccc4sc5c(c43)NC[C@@H](C)NC5=O)n2)cn1
% of inhibition [2]: 37%

O=C(NOC[C@H](O)CO)c1ccc(F)c(F)c1Nc1ccc(I)cc1F
% of control [3]: 75%

Cc1cc(-c2ccnc(Nc3cnn(C)c3)n2)ccc1CNC(=O)N1CC(OC(C)C)C1
% of control [4]: 28%

Cc1cc([C@@H](C)Nc2ccccc2C(=O)O)c2nc(N3CCOCC3)cc(=O)n2c1 [AZD-6482]
% of control [5]: 100%

Cn1cc(-n2cnc3c(NCc4nc5cc(Cl)c(Cl)cc5[nH]4)nc(N4CCOCC4)nc32)cn1
% of inhibition [6]: -25.4%

Cc1cc(CN)cc(C)c1-c1ncn(C)c1-c1cncn1C
dTM [7]: -2.98 K

CCc1cccc(CC)c1NC(=O)c1nn(C)c2c1CCc1cnc(Nc3ccc(C(=O)NC4CCN(C)CC4)cc3OC(F)(F)F)nc1-2
IC50 [8]: > 10 µM

CC[C@@H]1[C@H](F)C(=O)N[C@@H]1COc1nccc2cc(C(N)=O)c(OC)cc12 [ZIMLOVISERTIB]
% of inhibition [9]: 16.5%

COCC(=O)NC/C=C/c1ccc2ncnc(Nc3ccc(Oc4ccc(C)nc4)c(C)c3)c2c1 [CP-724714]
% of control [10]: 100%
